We go through one compound from publication PMC5700161, “Structure of human immunoproteasome with a reversible and noncompetitive inhibitor that selectively inhibits activated lymphocytes” (Nature Communications, 2017).

One test deals with T1, β5c in HepG2 cells (Homo sapiens, UniProt P20618+P28074).
T1 construct: host or cells: HepG2
Briefly: Intracellular β5c activity in HepG2 cells, suc-LLVY-luciferin. It counts as cell-based. How it is done:
To determine if this class of inhibitors is cell penetrable, we treated the B-cell lymphoma line Karpas 1106P[28] (expressing a high proportion of i-20S over c-20S) with PKS21221 before incubation with either (Ac-ANW)2-R110 (a specific substrate of β5i) or suc-LLVY-luciferin (a substrate of β5) (Fig. 4a). […] No β5i activity was detected in HepG2 cells using (Ac-ANW)2-R110 as a substrate.
Cell viability was determined by CellTiter-glo.
Intracellular proteasomal activity and inhibition assay were performed as reported. Karpas 1106P (80,000 cells per well) were plated and incubated with compound at indicated concentrations for 1 h at 37 °C. The activity of the overall β5 activity including β5i and β5c in each was measured in situ after compound removal with Proteasome-Glo assay kit according to manufacturer’s instructions. Luminescence was recorded on a SpectraMax M5 plate reader. Relative percentage of RLU was used to calculate the IC50s.

The subject of a further test is MM.1S cells. The test can be described thus: Cytotoxicity, CellTiter-glo, MM.1S. It counts as cell-based. As to conditions: 72 h. How it is done: (§1) Fig. 4 Intracellular proteasome inhibition by PKS21221 and its cytotoxicity against transformed cell lines. a Karpas 1106P lymphoma cells (white and black symbols) or HepG2 cells (blue symbols) were treated with PKS21221 for 2 h at the concentrations indicated prior to incubation with substrate (Ac-ANW)2R110 for β5i (Karpas cells) or suc-LLVY-luciferin for β5 (Karpas cells and HepG2 cells). […] Cell viability was determined by CellTiter-glo. Data are means ± SEM of three to four independent experiments
(§2) We incubated MM.1S, RPMI 8226, Karpas and HepG2 cells with PKS21221 at different concentrations, and determined cell viability after 72 h (Fig. 4b).
(§3) We used Karpas 1106P B lymphoma cell line (Cat. No. 06072607, Aldrich)[15],[16],[52], HepG2 (HB-8065, ATCC), MM.1S (Cat. No. CRL-2974, ATCC). Cells were cultured at 37 °C in a humidified air/5% CO2 atmosphere in medium supplemented with 10% fetal bovine serum, except for the medium for Karpas 1106P cells which contained 20% fetal bovine serum, and 100 units per ml penicillin, 100 μg per ml streptomycin in RPMI 1640 medium. Karpas 1106P was used at 80,000 cells per well, MM.1S at 100,000 cells per well, and HepG2 at 12,000 cells per well. […] Viable cells were counted using Cell-titer Glo assay kit. EC50s were calculated using PRISM (Graphpad).
Background: In ATP-based viability assays light output follows the ATP content of the culture.

The next test has as its system HepG2 cells. Briefly: Cytotoxicity, CellTiter-glo, HepG2. The following applies: read-out: EC50 HepG2, 72 h. The procedure: as §1, §2, §3
The next test has as its system luciferase. The test can be described thus: Luciferase counter-test. It counts as biochemical. As to conditions: at 100 µM, tested over 0.002–100 µM.
The target in the next test is human β5c (Homo sapiens, UniProt P20618+P28074). Briefly: IC50 determination against human β5c of c-20S.
The target of another test is β2i (Homo sapiens, UniProt P40306). Briefly: IC50 against β2i of human immunoproteasome (Z-VLR-AMC). As to conditions: read-out: IC50 2i - VLR (β2i); substrate Z-VLR-AMC.
The target in another test is β1i (Homo sapiens, UniProt P28065). The test can be described thus: IC50 against β1i of human immunoproteasome (Ac-PAL-AMC). As to conditions: read-out: IC50 1i - PAL (β1i); substrate Ac-PAL-AMC.
A further test addresses β2c (Homo sapiens, UniProt Q99436). The test can be described thus: IC50 against β2c of human constitutive proteasome (Z-VLR-AMC). As to conditions: read-out: IC50 2c - VLR (β2c); substrate Z-VLR-AMC.

Protocol for human β5c: (§4) IC50s of all compounds against β5i and β5c (Table 2) and against β1i, β2i, β1c, and β2c (Supplementary Table 1) were determined following reported methods[8].
Protocol for β1i: as §4
Protocol for β2c: as §4
Protocol for β2i: as §4

As a reminder, the IC50 is the concentration that inhibits the measured activity by half. Usually EC50 stands for the concentration needed to bring the measured effect to its halfway point. With `Cc1ccc(S(=O)(=O)N[C@@H](CC(=O)NC(C)(C)C)C(=O)NCCNC(=O)c2cc(-c3ccccc3F)ccc2F)cc1` [PKS21221], the concentration for half-maximal inhibition (IC50) is 1830 ± 138 nM against β5c in HepG2 cells; 110 nM on human β5c (read-out: IC50 against β5c); over 50000 nM at β2i; over 50000 nM at β1i; over 50000 nM on β2c. The concentration giving a half-maximal response (EC50) is 78 ± 30 nM in the test on MM.1S cells and 2320 ± 630 nM in the test on HepG2 cells. Besides, the “inhibition of luciferase activity” value with luciferase is “does not inhibit”. The “Hill coefficient constant, inhibition of β5c” value on human β5c is ~ 1.
